Assays:
[1] = target: Phosphatidylinositol 4,5-bisphosphate 3-kinase catalytic subunit alpha isoform (Homo sapiens, UniProt P42336); assay: Inhibition of recombinant human full length N-terminal GST-tagged PI3Kalpha (1 to 1068 residues)/PIK3R1 (1 to 724 residues) expressed in baculovirus expression system using PIP2 as substrate incubated for 1 hr by ADP-Glo assay
[2] = Oral bioavailability in Sprague-Dawley rat at 10 mg/kg measured upto 24 hrs by LC-MS/MS analysis; type: ADME, organism-based; settings: in vivo
[3] = target: Activated CDC42 kinase 1 (Homo sapiens) (UniProt Q07912); assay: Inhibition of human ACK1 at 100 nM using EAIYAAPFAKKK as substrate by [gamma-33P]-ATP assay
[4] = target: Aurora kinase C (Homo sapiens) (UniProt Q9UQB9); assay: Inhibition of human Aurora C at 100 nM using [H-LRRASLG] as substrate by [gamma-33P]-ATP assay
[5] = target: Calcium/calmodulin-dependent protein kinase type 1B (Homo sapiens) (UniProt Q6P2M8); assay: Inhibition of human CAMK1B at 100 nM using KKALRRQETVDAL as substrate by [gamma-33P]-ATP assay
[6] = target: Calcium/calmodulin-dependent protein kinase type 1D (Homo sapiens) (UniProt Q8IU85); assay: Inhibition of human CAMK1D at 100 nM using KKALRRQETVDAL as substrate by [gamma-33P]-ATP assay
[7] = target: Calcium/calmodulin-dependent protein kinase type II subunit alpha (Homo sapiens) (UniProt Q9UQM7); assay: Inhibition of human CAMK2A at 100 nM using KKALRRQETVDAL as substrate by [gamma-33P]-ATP assay
[8] = target: Calcium/calmodulin-dependent protein kinase kinase 2 (Homo sapiens) (UniProt Q96RR4); assay: Inhibition of human CAMKK2 at 100 nM using MBP as substrate by [gamma-33P]-ATP assay
[9] = target: CDK1/Cyclin A (Homo sapiens) (UniProt P06493+P20248); assay: Inhibition of human CDK1/Cyclin-A at 100 nM using Histone H1 as substrate by [gamma-33P]-ATP assay; type: protein-complex assay
[10] = target: Cyclin-dependent kinase 5/CDK5 activator 1 (Homo sapiens) (UniProt Q00535+Q15078); assay: Inhibition of human CDK5/p35 at 100 nM using histone H1 as substrate by [gamma-33P]-ATP assay; type: protein-complex assay
[11] = target: Dual specificity tyrosine-phosphorylation-regulated kinase 3 (Homo sapiens) (UniProt O43781); assay: Inhibition of human DYRK3 at 100 nM using RRRFRPASPLRGPPK as substrate by [gamma-33P]-ATP assay
[12] = target: Ephrin type-B receptor 2 (Homo sapiens) (UniProt P29323); assay: Inhibition of human EPHB2 at 100 nM using poly[Glu:Tyr] (4:1) as substrate by [gamma-33P]-ATP assay
[13] = target: Homeodomain-interacting protein kinase 4 (Homo sapiens) (UniProt Q8NE63); assay: Inhibition of human HIPK4 at 100 nM using MBP as substrate by [gamma-33P]-ATP assay
[14] = target: Tyrosine-protein kinase ITK/TSK (Homo sapiens) (UniProt Q08881); assay: Inhibition of human ITK at 100 nM using MBP as substrate by [gamma-33P]-ATP assay
[15] = target: Dual specificity mitogen-activated protein kinase kinase 2 (Homo sapiens) (UniProt P36507); assay: Inhibition of human MEK2 at 100 nM using ERK2 as substrate by [gamma-33P]-ATP assay
[16] = target: Mitogen-activated protein kinase kinase kinase 1 (Homo sapiens) (UniProt Q13233); assay: Inhibition of human MEKK1 at 100 nM using MBP as substrate by [gamma-33P]-ATP assay
[17] = target: Dual specificity mitogen-activated protein kinase kinase 7 (Homo sapiens) (UniProt O14733); assay: Inhibition of human MKK7 at 100 nM using JNK as substrate by [gamma-33P]-ATP assay
[18] = target: Myosin light chain kinase, smooth muscle (Homo sapiens) (UniProt Q15746); assay: Inhibition of human MLCK at 100 nM using KKLNRTLSFAEPG as substrate by [gamma-33P]-ATP assay
[19] = target: Myosin light chain kinase 2, skeletal/cardiac muscle (Homo sapiens) (UniProt Q9H1R3); assay: Inhibition of human MLCK2 at 100 nM using KKLNRTLSFAEPG as substrate by [gamma-33P]-ATP assay
[20] = target: Mitogen-activated protein kinase kinase kinase 9 (Homo sapiens) (UniProt P80192); assay: Inhibition of human MLK1 at 100 nM using casein as substrate by [gamma-33P]-ATP assay
[21] = target: Serine/threonine-protein kinase 4 (Homo sapiens) (UniProt Q13043); assay: Inhibition of human MST1 at 100 nM using KKSRGDYMTMQIG as substrate by [gamma-33P]-ATP assay
[22] = target: PAS domain-containing serine/threonine-protein kinase (Homo sapiens) (UniProt Q96RG2); assay: Inhibition of human PASK at 100 nM using KKLNRTLSFAEPG as substrate by [gamma-33P]-ATP assay
[23] = target: Platelet-derived growth factor receptor beta (Homo sapiens) (UniProt P09619); assay: Inhibition of human PDGFRbeta at 100 nM using poly[Glu:Tyr] (4:1) as substrate by [gamma-33P]-ATP assay
[24] = target: Serine/threonine-protein kinase pim-3 (Homo sapiens) (UniProt Q86V86); assay: Inhibition of human PIM3 at 100 nM using RSRHSSYPAGT as substrate by [gamma-33P]-ATP assay
[25] = target: Protein kinase C delta type (Homo sapiens) (UniProt Q05655); assay: Inhibition of human PKCdelta at 100 nM using ERMRPRKRQGSVRRRV as substrate by [gamma-33P]-ATP assay
[26] = target: Protein kinase C iota type (Homo sapiens) (UniProt P41743); assay: Inhibition of human PKCiota at 100 nM using ERMRPRKRQGSVRRRV as substrate by [gamma-33P]-ATP assay
[27] = target: cGMP-dependent protein kinase 1 (Homo sapiens) (UniProt Q13976); assay: Inhibition of human PKG1alpha at 100 nM using LRRASLG as substrate by [gamma-33P]-ATP assay
[28] = target: cGMP-dependent protein kinase 1 (Homo sapiens) (UniProt Q13976); assay: Inhibition of human PKG1beta at 100 nM using LRRASLG as substrate by [gamma-33P]-ATP assay
[29] = target: Serine/threonine-protein kinase N2 (Homo sapiens) (UniProt Q16513); assay: Inhibition of human PKN2 at 100 nM using KKLNRTLSVA as substrate by [gamma-33P]-ATP assay
[30] = target: Tyrosine-protein kinase Tec (Homo sapiens) (UniProt P42680); assay: Inhibition of human TEC at 100 nM using poly[Glu:Tyr] (4:1) as substrate by [gamma-33P]-ATP assay
[31] = target: Mitogen-activated protein kinase kinase kinase 19 (Homo sapiens) (UniProt Q56UN5); assay: Inhibition of human YSK4 at 100 nM using MBP as substrate by [gamma-33P]-ATP assay

Sequence of cGMP-dependent protein kinase 1 (Homo sapiens) (Q13976 whole entry): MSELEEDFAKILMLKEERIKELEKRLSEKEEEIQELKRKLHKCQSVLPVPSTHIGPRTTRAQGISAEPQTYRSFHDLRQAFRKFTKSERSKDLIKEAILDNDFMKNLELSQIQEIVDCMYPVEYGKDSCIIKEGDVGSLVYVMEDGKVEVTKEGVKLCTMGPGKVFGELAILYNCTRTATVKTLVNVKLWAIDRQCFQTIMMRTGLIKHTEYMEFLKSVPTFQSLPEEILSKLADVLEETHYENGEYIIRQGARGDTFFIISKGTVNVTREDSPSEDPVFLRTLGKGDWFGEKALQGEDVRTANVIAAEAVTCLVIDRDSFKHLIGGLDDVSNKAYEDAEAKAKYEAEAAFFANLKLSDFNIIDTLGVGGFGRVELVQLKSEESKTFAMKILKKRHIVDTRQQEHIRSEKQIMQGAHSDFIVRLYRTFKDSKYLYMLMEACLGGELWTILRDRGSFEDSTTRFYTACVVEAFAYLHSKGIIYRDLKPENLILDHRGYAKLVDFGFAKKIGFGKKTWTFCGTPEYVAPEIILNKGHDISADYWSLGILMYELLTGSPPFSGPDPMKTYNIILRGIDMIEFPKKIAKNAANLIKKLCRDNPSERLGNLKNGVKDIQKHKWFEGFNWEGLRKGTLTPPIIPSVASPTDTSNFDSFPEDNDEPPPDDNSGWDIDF
Sequence of Activated CDC42 kinase 1 (Homo sapiens) (Q07912 whole entry, looked up): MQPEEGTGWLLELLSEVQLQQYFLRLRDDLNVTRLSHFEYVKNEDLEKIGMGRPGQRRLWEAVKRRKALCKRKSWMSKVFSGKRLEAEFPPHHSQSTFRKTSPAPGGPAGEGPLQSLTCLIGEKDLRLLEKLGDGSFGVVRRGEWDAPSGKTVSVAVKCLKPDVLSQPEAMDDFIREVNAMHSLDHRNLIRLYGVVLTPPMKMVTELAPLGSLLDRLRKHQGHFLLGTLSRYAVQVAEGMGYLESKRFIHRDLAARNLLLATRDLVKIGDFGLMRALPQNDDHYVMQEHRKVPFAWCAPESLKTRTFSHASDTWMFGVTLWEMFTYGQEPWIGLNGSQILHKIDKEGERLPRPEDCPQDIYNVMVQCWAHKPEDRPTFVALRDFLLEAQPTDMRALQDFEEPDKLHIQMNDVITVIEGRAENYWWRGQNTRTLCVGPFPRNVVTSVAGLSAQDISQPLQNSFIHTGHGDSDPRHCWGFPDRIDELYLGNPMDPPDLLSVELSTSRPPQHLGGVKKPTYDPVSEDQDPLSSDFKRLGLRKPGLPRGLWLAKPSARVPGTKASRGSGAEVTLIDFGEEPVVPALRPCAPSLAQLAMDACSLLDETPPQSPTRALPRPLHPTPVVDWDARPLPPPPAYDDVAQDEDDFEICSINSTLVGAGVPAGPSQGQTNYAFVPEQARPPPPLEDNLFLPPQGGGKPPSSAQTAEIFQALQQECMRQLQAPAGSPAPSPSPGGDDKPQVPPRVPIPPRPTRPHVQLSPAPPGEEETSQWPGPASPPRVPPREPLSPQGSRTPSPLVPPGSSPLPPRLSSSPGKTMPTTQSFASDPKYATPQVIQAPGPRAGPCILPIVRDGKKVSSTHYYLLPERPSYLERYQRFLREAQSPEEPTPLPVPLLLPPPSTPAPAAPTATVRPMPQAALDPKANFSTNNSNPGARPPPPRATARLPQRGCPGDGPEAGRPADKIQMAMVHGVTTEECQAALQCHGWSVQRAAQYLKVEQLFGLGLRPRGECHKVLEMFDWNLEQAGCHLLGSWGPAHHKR
Sequence of Cyclin-dependent kinase 5/CDK5 activator 1 (Homo sapiens) (Q00535 whole entry): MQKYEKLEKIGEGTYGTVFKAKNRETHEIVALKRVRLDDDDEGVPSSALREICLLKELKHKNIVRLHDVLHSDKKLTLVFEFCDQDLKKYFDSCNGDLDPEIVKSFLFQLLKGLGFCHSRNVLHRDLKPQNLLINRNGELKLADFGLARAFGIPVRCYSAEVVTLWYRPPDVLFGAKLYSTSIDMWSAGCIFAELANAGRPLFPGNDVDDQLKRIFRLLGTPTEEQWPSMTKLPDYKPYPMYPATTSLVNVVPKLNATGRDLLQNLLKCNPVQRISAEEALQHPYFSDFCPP
Sequence of Cyclin-dependent kinase 5/CDK5 activator 1 (Homo sapiens) (Q15078 99-307 partner limits assumed): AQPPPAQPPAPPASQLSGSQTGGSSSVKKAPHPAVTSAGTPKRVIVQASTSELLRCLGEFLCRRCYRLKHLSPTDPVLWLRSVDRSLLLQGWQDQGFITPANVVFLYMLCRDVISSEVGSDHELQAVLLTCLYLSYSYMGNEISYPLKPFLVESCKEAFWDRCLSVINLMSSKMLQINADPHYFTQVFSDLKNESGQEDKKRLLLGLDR
Sequence of Calcium/calmodulin-dependent protein kinase type II subunit alpha (Homo sapiens) (Q9UQM7 whole entry): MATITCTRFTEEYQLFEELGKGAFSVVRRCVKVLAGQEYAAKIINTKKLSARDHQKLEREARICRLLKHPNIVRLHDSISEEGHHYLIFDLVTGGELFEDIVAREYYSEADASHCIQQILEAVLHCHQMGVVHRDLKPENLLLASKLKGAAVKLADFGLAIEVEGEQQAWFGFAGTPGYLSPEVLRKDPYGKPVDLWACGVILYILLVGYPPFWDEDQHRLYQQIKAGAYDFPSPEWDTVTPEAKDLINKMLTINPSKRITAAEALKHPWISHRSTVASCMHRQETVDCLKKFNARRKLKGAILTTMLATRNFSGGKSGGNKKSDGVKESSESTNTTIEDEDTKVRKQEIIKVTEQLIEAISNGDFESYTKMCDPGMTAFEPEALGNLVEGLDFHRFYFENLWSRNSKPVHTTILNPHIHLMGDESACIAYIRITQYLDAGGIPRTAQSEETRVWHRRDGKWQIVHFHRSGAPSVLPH
Sequence of Aurora kinase C (Homo sapiens) (Q9UQB9 whole entry): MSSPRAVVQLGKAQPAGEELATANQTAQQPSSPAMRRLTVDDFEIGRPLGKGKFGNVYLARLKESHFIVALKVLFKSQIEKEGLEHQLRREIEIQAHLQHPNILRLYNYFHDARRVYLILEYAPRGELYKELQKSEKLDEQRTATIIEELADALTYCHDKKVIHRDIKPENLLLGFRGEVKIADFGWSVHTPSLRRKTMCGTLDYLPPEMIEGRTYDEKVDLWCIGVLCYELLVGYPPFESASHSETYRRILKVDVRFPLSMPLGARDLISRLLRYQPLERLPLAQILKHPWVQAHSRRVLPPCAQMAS
Sequence of Serine/threonine-protein kinase N2 (Homo sapiens) (Q16513 whole entry, looked up): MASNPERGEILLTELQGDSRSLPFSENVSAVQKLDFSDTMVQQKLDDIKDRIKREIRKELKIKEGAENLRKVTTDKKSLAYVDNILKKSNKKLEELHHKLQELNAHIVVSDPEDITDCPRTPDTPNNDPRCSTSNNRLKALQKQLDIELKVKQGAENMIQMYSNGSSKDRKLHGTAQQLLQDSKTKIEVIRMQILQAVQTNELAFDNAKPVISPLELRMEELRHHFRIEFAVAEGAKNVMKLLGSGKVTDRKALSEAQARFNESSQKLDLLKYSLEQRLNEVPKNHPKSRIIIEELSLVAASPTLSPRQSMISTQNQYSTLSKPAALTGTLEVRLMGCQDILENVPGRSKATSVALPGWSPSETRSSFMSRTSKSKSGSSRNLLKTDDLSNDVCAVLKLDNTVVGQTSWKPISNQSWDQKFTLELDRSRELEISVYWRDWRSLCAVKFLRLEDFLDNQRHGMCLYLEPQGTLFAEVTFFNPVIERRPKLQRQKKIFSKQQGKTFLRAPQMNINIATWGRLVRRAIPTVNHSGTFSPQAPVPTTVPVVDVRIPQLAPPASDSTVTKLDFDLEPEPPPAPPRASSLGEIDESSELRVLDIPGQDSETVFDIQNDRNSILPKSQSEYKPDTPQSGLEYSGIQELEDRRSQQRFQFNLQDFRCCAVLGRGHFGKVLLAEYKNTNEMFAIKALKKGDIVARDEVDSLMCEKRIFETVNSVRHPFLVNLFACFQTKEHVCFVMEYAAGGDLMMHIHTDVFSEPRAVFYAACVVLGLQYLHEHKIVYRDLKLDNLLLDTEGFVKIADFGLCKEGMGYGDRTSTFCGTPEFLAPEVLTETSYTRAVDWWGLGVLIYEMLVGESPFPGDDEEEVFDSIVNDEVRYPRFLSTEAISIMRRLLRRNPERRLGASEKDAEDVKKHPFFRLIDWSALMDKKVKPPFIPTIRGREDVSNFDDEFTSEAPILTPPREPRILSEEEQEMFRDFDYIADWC
Sequence of Tyrosine-protein kinase ITK/TSK (Homo sapiens) (Q08881 whole entry): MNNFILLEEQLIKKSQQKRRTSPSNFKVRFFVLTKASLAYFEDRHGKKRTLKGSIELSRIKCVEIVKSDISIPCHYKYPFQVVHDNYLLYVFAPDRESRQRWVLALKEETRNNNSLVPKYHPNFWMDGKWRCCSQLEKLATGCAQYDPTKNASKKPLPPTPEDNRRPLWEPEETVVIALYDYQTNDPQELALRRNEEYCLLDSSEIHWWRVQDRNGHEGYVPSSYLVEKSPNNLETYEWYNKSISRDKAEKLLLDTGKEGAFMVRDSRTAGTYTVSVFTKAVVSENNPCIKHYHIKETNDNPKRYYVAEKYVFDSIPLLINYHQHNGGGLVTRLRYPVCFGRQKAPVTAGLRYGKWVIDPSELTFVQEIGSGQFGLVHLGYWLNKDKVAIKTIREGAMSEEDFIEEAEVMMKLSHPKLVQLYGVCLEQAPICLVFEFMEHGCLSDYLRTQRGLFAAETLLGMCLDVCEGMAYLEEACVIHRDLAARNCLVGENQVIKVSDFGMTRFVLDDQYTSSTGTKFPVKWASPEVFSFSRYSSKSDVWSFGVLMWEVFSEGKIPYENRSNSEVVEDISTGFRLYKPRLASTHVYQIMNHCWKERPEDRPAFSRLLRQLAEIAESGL
Sequence of Calcium/calmodulin-dependent protein kinase type 1D (Homo sapiens) (Q8IU85 whole entry, looked up): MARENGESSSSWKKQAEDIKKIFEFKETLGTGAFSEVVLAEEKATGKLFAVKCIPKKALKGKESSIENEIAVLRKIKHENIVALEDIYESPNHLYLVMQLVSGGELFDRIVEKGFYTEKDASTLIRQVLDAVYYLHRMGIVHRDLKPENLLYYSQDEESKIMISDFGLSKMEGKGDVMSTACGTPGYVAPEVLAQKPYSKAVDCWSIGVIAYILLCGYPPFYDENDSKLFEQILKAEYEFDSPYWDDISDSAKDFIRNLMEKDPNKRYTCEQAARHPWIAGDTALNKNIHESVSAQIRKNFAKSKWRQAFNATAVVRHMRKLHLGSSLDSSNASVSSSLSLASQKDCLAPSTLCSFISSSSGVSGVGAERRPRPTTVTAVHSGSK

`COc1ccc(N2C(=O)COc3ccc(-c4cnc(OC)c(NS(=O)(=O)c5ccc(F)cc5)c4)cc32)cc1` showed an IC50 [1] of 0.63 nM, a bioavailability [2] of 24.1% and an inhibition [3] of 10.4%. The inhibition [4] was 10.1%, the inhibition [5] was 7.52% and the inhibition [6] was 0%. For the same compound, the inhibition [7] was 0.08%, the inhibition [8] was 13.7% and the inhibition [9] was 16%. The inhibition [10] was 8.65%, the inhibition [11] was -8.14% and the inhibition [12] was -6.07%. The inhibition [13] was 5.1%, the inhibition [14] was -1.21% and the inhibition [15] was 1.12%. For the same compound, the inhibition [16] was 6.33%, the inhibition [17] was -2.26% and the inhibition [18] was 7.23%. The inhibition [19] was 0.61%, the inhibition [20] was 0.68% and the inhibition [21] was 11.4%. For the same compound, the inhibition [22] was -2.91%, the inhibition [23] was 0.28% and the inhibition [24] was -9.8%. The inhibition [25] was 2.24%, the inhibition [26] was -2.31% and the inhibition [27] was 4.25%. For the same compound, the inhibition [28] was -9.98%, the inhibition [29] was 6.6% and the inhibition [30] was -4.06%. It also gave an inhibition [31] of 3.44%.
